The structures appear in SMILES notation. pIC50: −log10 of the molar value.

The target in assay [1] is Sphingosine 1-phosphate receptor 2 (Homo sapiens, UniProt O95136). Description: Displacement of [32P]S1P from recombinant human S1PR2 expressed in Chem1 cell membranes co-expressing Galpha15 pretreated for 30 mins followed by [32P]S1P addition measured after 60 mins by scintillation counting method.
Assay [2] concerns the target Sphingosine 1-phosphate receptor 3 (Homo sapiens, UniProt Q99500). The experiment in a line: Displacement of [32P]S1P from recombinant human S1PR3 expressed in Chem1 cell membranes co-expressing Galpha15 pretreated for 30 mins followed by [32P]S1P addition measured after 60 mins by scintillation counting method.
The target in assay [3] is Sphingosine 1-phosphate receptor 1 (Homo sapiens, UniProt P21453). Description: Displacement of [32P]S1P from recombinant human S1PR1 expressed in CHOK1 cell membranes pretreated for 30 mins followed by [32P]S1P addition measured after 60 mins by scintillation counting method.
Sphingosine 1-phosphate receptor 1, sequence (P21453 whole entry): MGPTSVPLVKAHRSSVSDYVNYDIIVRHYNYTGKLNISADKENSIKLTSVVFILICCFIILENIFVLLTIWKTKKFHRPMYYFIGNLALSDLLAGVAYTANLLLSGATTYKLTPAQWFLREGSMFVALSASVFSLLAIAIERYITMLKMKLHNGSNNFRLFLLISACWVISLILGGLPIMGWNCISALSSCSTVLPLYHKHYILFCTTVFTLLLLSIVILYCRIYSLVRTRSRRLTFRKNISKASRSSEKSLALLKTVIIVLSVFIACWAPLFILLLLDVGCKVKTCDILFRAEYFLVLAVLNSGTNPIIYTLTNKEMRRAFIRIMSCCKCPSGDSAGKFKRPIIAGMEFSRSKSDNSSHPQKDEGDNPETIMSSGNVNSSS
The target in assay [4] is T1, Sphingosine 1-phosphate receptor 4 (Homo sapiens, UniProt O95977).
T1 sequence (O95977 whole entry): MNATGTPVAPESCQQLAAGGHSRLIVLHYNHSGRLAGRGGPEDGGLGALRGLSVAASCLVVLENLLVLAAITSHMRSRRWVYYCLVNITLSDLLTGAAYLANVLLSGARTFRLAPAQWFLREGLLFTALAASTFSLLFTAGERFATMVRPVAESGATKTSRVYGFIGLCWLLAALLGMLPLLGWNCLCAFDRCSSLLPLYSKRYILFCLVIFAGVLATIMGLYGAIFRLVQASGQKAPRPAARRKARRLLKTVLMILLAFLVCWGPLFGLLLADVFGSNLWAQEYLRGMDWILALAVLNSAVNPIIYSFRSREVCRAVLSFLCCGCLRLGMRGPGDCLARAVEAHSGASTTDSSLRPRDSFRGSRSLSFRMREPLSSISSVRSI
Description: Displacement of [32P]S1P from recombinant human S1PR4 expressed in cell membranes pretreated for 30 mins followed by [32P]S1P addition measured after 60 mins by scintillation counting method.

Assay [5] addresses Sphingosine 1-phosphate receptor 5 (Homo sapiens, UniProt Q9H228). Description: Displacement of [32P]S1P from recombinant human S1PR5 expressed in cell membranes pretreated for 30 mins followed by [32P]S1P addition measured after 60 mins by scintillation counting method.

Sphingosine 1-phosphate receptor 2, sequence (O95136 whole entry): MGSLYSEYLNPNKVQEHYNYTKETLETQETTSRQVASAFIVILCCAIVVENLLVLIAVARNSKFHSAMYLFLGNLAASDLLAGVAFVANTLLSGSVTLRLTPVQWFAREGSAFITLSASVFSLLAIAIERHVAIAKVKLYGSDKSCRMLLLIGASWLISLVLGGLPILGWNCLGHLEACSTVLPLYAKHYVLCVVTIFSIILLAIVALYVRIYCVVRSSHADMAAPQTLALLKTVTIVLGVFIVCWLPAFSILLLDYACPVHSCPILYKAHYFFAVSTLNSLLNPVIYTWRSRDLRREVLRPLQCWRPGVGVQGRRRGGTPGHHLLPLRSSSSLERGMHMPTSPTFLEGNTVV
Sphingosine 1-phosphate receptor 3, sequence (Q99500 whole entry): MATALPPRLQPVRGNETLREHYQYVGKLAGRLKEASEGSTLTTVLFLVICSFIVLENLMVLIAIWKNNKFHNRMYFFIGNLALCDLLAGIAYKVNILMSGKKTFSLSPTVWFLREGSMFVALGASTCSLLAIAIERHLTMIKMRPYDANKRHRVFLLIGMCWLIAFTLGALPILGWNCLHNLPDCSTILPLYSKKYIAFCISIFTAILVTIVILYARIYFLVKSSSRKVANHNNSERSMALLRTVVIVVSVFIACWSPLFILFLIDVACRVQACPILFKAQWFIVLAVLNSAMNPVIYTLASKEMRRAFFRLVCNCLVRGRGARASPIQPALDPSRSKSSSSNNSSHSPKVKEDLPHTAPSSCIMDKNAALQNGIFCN
Sphingosine 1-phosphate receptor 5, sequence (Q9H228 whole entry): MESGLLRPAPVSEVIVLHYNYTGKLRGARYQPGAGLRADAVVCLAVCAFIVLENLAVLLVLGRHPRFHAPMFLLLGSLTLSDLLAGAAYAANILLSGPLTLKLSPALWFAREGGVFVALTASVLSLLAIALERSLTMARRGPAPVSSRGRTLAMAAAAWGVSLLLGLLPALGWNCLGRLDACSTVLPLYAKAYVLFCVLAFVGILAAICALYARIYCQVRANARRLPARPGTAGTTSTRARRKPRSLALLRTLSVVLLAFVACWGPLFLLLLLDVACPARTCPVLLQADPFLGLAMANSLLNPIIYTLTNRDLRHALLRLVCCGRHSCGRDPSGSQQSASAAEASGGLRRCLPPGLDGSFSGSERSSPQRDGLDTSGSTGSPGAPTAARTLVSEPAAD

`Cc1nn(C)c2nc(C(=O)NC(=O)Nc3cc(Cl)nc(Cl)c3)cc(C(F)(F)F)c12`: in assay [1], the negative logarithm of the IC50 (pIC50) was less than 6.00.

For `Cc1nn(C)c2nc(NNC(=O)Nc3cc(Cl)nc(Cl)c3)cc(C(C)C)c12`, the negative-log IC50 (pIC50) in assay [2] and in assay [3] was less than 6.00 throughout.

For `COc1cc(-c2nc(-c3cc(C(C)C)c4c(C)nn(C)c4n3)no2)cc(Cl)n1`, the pIC50 in assay [1] is less than 6.00.

In the case of `Cc1nn(C)c2nc(NNC(=O)Nc3cc(Cl)n4ccnc4c3)cc(C(C)C)c12`, the negative-log IC50 (pIC50) in assay [1] is less than 6.00.

For the compound `COc1cc(NC(=O)NC(=O)c2cc(C(C)C)c3c(n2)c(C)nn3C)cc(Cl)n1`, in assay [1], the negative logarithm of the IC50 (pIC50) is less than 6.00.

Regarding `COc1cc(-c2nnc(-c3cc(C(C)C)c4c(C)nn(C)c4n3)[nH]2)cc(Cl)n1`, the pIC50 in assay [1] was less than 6.00.

`Cc1nn(C)c2nc(NNC(=O)Nc3nc4c(Cl)nc(Cl)cc4[nH]3)cc(C(C)C)c12`: the negative logarithm of the IC50 (pIC50) in assay [1] is less than 6.00.

Regarding `COc1cc(NC(=O)NC(=O)c2cc(C(F)(F)F)c3c(C)n[nH]c3n2)cc(Cl)n1`, the negative logarithm of the IC50 (pIC50) in assay [1] was less than 6.00.

Consider `Cc1nn(C)c2nc(NNC(=O)Nc3cc(Cl)nc(OCC4CC4)c3)cc(C(C)C)c12`, for which the pIC50 in assay [4] is less than 6.00; in assay [2] it was less than 6.00; in assay [3] it was less than 6.00; in assay [5] it was less than 6.00; in assay [1] it was 7.25.

As to `Cc1nn(C)c2nc(NNC(=O)Nc3cc(Cl)nc(OC(C)C)c3)cc(C(C)C)c12`, the pIC50 is less than 6.00 in assay [4]; less than 6.00 in assay [2]; less than 6.00 in assay [3]; less than 6.00 in assay [5]; 7.54 in assay [1].

With `COc1cc(NC(=O)NC(=O)c2cc(C(F)(F)F)c3c(C)nn(C)c3n2)cc(Cl)n1`, in assay [1], the negative logarithm of the IC50 (pIC50) was less than 6.00.

As to `Cc1n[nH]c2nc(C(=O)NC(=O)Nc3cc(Cl)nc(Cl)c3)cc(C(F)(F)F)c12`, the pIC50 in assay [1] was less than 6.00.

The values are drawn from ChEMBL document CHEMBL4184089 (Bioorg Med Chem Lett, 2018).
